Assay results from patent EP4806892A1, “CEREBLON E3 UBIQUITIN LIGASE INHIBITOR” (GAN & LEE PHARMACEUTICALS CO., LTD., priority 2023, dated 2025).

What was measured:
AR protein = biological target: T1, AR protein (Homo sapiens, UniProt P10275); assay: AR protein degradation in VCaP cells (Western blot); assay type: cell-based; settings: 8h
T1 construct: AR-positive human prostate cancer cells VCaP (cell source: ATCC); host or cells: VCaP
T1 sequence (P10275 1-920): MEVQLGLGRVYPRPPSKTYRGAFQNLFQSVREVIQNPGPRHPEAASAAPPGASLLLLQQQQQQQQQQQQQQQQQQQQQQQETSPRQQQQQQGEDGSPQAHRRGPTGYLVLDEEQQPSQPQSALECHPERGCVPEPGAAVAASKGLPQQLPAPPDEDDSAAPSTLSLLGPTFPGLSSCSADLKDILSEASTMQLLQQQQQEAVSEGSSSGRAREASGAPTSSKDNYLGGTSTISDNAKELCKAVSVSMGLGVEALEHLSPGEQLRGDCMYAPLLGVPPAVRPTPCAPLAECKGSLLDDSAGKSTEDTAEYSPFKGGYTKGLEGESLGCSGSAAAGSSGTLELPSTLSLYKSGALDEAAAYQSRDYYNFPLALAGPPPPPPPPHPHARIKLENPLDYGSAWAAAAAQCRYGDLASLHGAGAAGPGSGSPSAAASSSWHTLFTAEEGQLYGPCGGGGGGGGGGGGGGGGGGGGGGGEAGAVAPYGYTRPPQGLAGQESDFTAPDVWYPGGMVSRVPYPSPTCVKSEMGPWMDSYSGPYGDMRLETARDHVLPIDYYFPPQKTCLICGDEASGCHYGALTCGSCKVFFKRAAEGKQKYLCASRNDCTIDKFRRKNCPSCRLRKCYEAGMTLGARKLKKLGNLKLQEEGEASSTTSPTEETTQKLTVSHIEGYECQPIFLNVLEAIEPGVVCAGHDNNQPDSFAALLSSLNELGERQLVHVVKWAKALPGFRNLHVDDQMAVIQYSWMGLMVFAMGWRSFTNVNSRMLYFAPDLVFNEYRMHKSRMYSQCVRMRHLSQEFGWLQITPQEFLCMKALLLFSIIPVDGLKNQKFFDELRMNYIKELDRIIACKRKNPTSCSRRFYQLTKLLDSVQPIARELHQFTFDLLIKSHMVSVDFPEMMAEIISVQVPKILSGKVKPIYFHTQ
Method: AR-positive human prostate cancer cells VCaP (cell source: ATCC) were cultured in DMEM (GiBco catalog number 11995-065) containing 10% FBS (Hyclone catalog number SH30406.05), and the cells were inoculated in a six-well microplate (Thermo catalog number 140675) at a density of 3 × 10^5 cells/well. After being cultured overnight in a carbon dioxide incubator (ESCO), the prepared compound of the present invention and the positive control sample ARV-766 (energy chemical) solution of different concentrations were added at a volume of 1 µL/well to make the final concentrations of the compound and the positive control sample reach 5nM and 0.5nM, respectively. At the same time, the corresponding solvent control was set and cultured for 8h. After 8h of culture, the culture medium was removed, and the cells were washed with PBS. RIPA lysis buffer containing 1% Protease Inhibitor Cocktail was added. After lysis and centrifugation, a total protein extract was obtained, and the protein concentration in the extract was detected by BCA method. Protein electrophoresis was performed using SDS-PAGE, and then the protein was transferred to a PVDF (Millipore Sigma catalog number PSRP010R5) membrane at a constant voltage of 100V for 60min. The PVDF membrane was placed in a 5% milk powder 1×TBST solution and blocked at room temperature for 1h. The primary antibody solution (Anti-Androgen receptor, Cell Signaling Technology catalog number: 5153S; 1:2000 dilution) was prepared and incubated at 4°C overnight. The primary antibody solution was discarded and the PVDF membrane was washed with 1×TBST for 5 minutes each time, three times. The secondary antibody solution (Thermo catalog number SA5-35571; 1:7500 dilution) was prepared and incubated at room temperature for 1 hour. The secondary antibody solution was discarded and the PVDF membrane was washed with 1×TBST for 5 minutes each time, three times. A dual-color infrared laser imaging system (Licor catalog number Odyssey CLX) was used for Western membrane imaging. The Image Studio software was used to analyze the grayscale of the bands. GAPDH protein bands were also detected for each sample as an internal reference. The AR protein degradation rate of the compound and the positive control sample was calculated based on the grayscale of the protein bands. Among them, "A" means degradation rate ≥ 50%, "B" means 50%> degradation rate ≥ 20%, "C" means 20% degradation rate ≥ 10%, and "D" means degradation rate less than 10%.

LNCAP cell = assay: LNCaP cell proliferation inhibition (WST-8); assay type: cell-based; settings: Homo sapiens, LNCaP FGC cells, 96 hours, read-out: IC50 for inhibiting LNCAP cell proliferation
Method: LNCaP FGC cells (ATCC, CLR-1740) were cultured in RPMI 1640 (ATCC, 30-2001) complete medium supplemented with 10% fetal bovine serum (Hyclone, SH30406.05). On the first day of the experiment, LNCaP FGC cells were seeded at a density of 5,000 cells/well in 96-well plates using RPMI 1640 medium supplemented with 10% fetal bovine serum, with 100 µL of cell suspension per well. The cells were cultured overnight in a 37°C, 5% CO2 cell incubator. On the second day, 100 µL of different concentrations of the compound to be tested and the positive control sample ARV-766 (source: Energy Chemical) prepared in culture medium were added to each well. The final concentration of the compound was 9 concentration points of 5-fold serial dilution starting from 10 µM. The wells to which 100 µL of RPMI 1640 culture medium containing 10% fetal bovine serum was added were set as controls. The cells were cultured in a cell culture incubator at 37°C and 5% CO2 for 96 hours. On the sixth day, the 96-well cell culture plate was removed, and 1/10 volume of WST-8 (Beytime, C0040) reagent was added to each well. The absorbance at 450 nm was detected using a microplate reader (TECAN, F50).

Structure (SMILES)	Degradation rate of AR protein in VCAP cells (AR protein; 0.5 nM)	Degradation rate of AR protein in VCAP cells (AR protein; 5 nM)	IC50 (LNCAP cell)
C[C@H]1CC2(CCN(c3ccc(C(=O)N4CCC(CN5CCN6c7ccc(N8CCC(=O)NC8=O)cc7OCC[C@H]6C5)CC4)cc3)CC2)CN1c1ccc(C#N)c(C(F)(F)F)c1 [A-P-195]	B (50%> degradation rate ≥ 20%)	A (degradation rate ≥ 50%)	100 nM
COc1cc(O[C@H]2C(C)(C)[C@H](NC(=O)c3ccc(N4CCC(F)(CN5CCN6c7ccc(N8CCC(=O)NC8=O)cc7OCC[C@H]6C5)CC4)cc3)C2(C)C)ccc1C#N [A-P-196]	A (degradation rate ≥ 50%)	A (degradation rate ≥ 50%)	240 nM
C[C@H]1CC2(CCN(c3ccc(C(=O)N4CCC(CN5CCC6(COc7cc(N8CCC(=O)NC8=O)ccc76)C(F)(F)C5)CC4)cc3)CC2)CN1c1ccc(C#N)c(Cl)c1 (some centres unmarked) [A-P-233]		B (50%> degradation rate ≥ 20%)	77 nM
C[C@H]1CC2(CCN(c3ccc(C(=O)N4CCC(CN5CCC6(CC5)CN(C)c5ccc(N7CCC(=O)NC7=O)cc5O6)CC4)cc3)CC2)CN1c1ccc(C#N)c(Cl)c1 [A-P-235, (S)-2-chloro-4-(8-(4-(4-((7-(2,4-dioxotetrahydropyrimidin-1(2H)-yl)-4-methyl-3,4-dihydrospiro[benzo[b][1,4]oxazin-2,4'-piperidine]-1'-yl)methyl)piperidine-1-carbonyl)phenyl)-3-methyl-2,8-diazaspiro[4.5]decane-2-yl)benzonitrile]	A (degradation rate ≥ 50%)	A (degradation rate ≥ 50%)	> 50000 nM
COc1cc(O[C@H]2C(C)(C)[C@H](NC(=O)c3ccc(N4CCC(CN5CCN(c6ccc(C(=O)N[C@H]7CCC(=O)NC7=O)c(F)c6)CC5)CC4)cc3)C2(C)C)ccc1C#N [ARV766, reference compound]	A (degradation rate ≥ 50%)	A (degradation rate ≥ 50%)	490 nM
